Data on 13 compounds can be found in patent US10273248B2, “Glucose uptake inhibitors” (Kadmon Corporation LLC, priority 2015, dated 2019).

Molecules are shown by their SMILES.

This assay deals with glycolysis in HT1080 cells. The assay is described as follows: Glycolysis assay: oligomycin plus compound, cellular ATP by Cell Titer Glo. The format is cell-based. Conditions: Homo sapiens, HT-1080, 1 h, 10 μM oligomycin, one hour, class symbols. An excerpt:
Therefore, an assay was developed that utilizes the combination of the glucose uptake inhibitors disclosed herein with oligomycin, a well-characterized inhibitor of ATP synthase. Because oligomycin inhibits ATP derived from oxidative phosphorylation, any remaining ATP production is derived from glycolysis. By reading out cellular ATP levels using the Promega Cell Titer Glo kit, the extent of glycolysis inhibition by the glucose uptake inhibitors disclosed herein can be assessed. […] Utilizing this experimental set-up, the IC50 of glycolysis inhibition for each compound can be determined.
Determination of Glucose Uptake/GLUT Activity (Glycolysis Assay):
HT1080 cells (as well as other cell types) were plated to confluency in 96-well plates. Cells were exposed to the combination of 10 μM Oligomycin (to block mitochondrial-derived ATP) and the glucose uptake inhibitors disclosed herein for one-hour, after which glycolytically-derived ATP was measured with the Cell Titer-Glo assay kit (Promega). Dose-response curves of the glucose uptake inhibitors disclosed herein were used to determine the IC50 for GLUT activity.
For orientation: Cellular ATP, detected with luciferase, serves as a proxy for viable cell number.
For orientation: IC50 means the point on the concentration scale where inhibition reaches its midpoint. In the case of `CNC(=O)COc1cccc(-c2nc(Nc3ccc(-c4cn[nH]c4)cc3)c3ccsc3n2)c1` [Example 45, 2-(3-(4-((4-(1H-pyrazol-4-yl)phenyl)amino)thieno[2,3-d]pyrimidin-2-yl)phenoxy)-N-methylacetamide], the 50% inhibitory concentration (IC50) was more than 1000 nM.

In the case of `CCCNC(=O)COc1cccc(-c2nc(Nc3ccc(-c4cn[nH]c4)cc3)c3ccsc3n2)c1` [Example 46, 2-(3-(4-((4-(1H-pyrazol-4-yl)phenyl)amino)thieno[2,3-d]pyrimidin-2-yl)phenoxy)-N-propylacetamide], the half-maximal inhibitory concentration (IC50) lay within 501 to 1000 nM.

Take `O=C(Nc1cccc(-c2nc3c(c(Nc4ccc(-c5cn[nH]c5)cc4)n2)COC3)c1)c1cccnc1` [Example 47, N-(3-(4-((4-(1H-pyrazol-4-yl)phenyl)amino)-5,7-dihydrofuro[3,4-d]pyrimidin-2-yl)phenyl)nicotinamide]: the half-maximal inhibitory concentration (IC50) was in the range of 10 to 100 nM.

`CC(C)NC(=O)COc1cccc(-c2nc(Nc3ccc(-c4cn[nH]c4)cc3)c3ncccc3n2)c1` [Example 48, 2-(3-(4-((4-(1H-pyrazol-4-yl)phenyl)amino)pyrido[3,2-d]pyrimidin-2-yl)phenoxy)-N-isopropylacetamide]: the half-inhibitory concentration (IC50) was more than 1000 nM.

For the compound `O=C(COc1cccc(-c2nc(Nc3ccc(-c4cn[nH]c4)cc3)c3ncccc3n2)c1)NC1CCC1` [Example 49, 2-(3-(4-((4-(1H-pyrazol-4-yl)phenyl)amino)pyrido[3,2-d]pyrimidin-2-yl)phenoxy)-N-cyclobutylacetamide], the IC50 lay within 101 to 250 nM.

With `CC(C(=O)Nc1cccc(-c2nc(Nc3ccc(-c4cn[nH]c4)cc3)c3ncccc3n2)c1)N1CCOCC1` (stereo not shown) [Example 50, N-(3-(4-((4-(1H-pyrazol-4-yl)phenyl)amino)pyrido[3,2-d]pyrimidin-2-yl)phenyl)-2-morpholinopropanamide], the IC50 fell in the range of 501 to 1000 nM.

As for `O=C(COc1cccc(-c2nc(Nc3ccc(-c4cn[nH]c4)cc3)c3ncccc3n2)c1)NC1CCCC1` [Example 51, 2-(3-(4-((4-(1H-pyrazol-4-yl)phenyl)amino)pyrido[3,2-d]pyrimidin-2-yl)phenoxy)-N-cyclopentylacetamide], the half-maximal inhibitory concentration (IC50) lay in the range of 10 to 100 nM.

For `CC(C)NC(=O)COc1cccc(-c2nc(Nc3ccc(-c4cn[nH]c4)cc3)c3cccnc3n2)c1` [Example 52, 2-(3-(4-((4-(1H-pyrazol-4-yl)phenyl)amino)pyrido[2,3-d]pyrimidin-2-yl)phenoxy)-N-isopropylacetamide], the IC50 lay in the range of 501 to 1000 nM.

As to `CC(C)CNC(=O)COc1cccc(-c2nc(Nc3ccc(-c4cn[nH]c4)cc3)c3ncccc3n2)c1` [Example 53, 2-(3-(4-((4-(1H-pyrazol-4-yl)phenyl)amino)pyrido[3,2-d]pyrimidin-2-yl)phenoxy)-N-isobutylacetamide], the IC50 was in the range of 101 to 250 nM.

For `Cn1ncc2c(Nc3ccc(-c4cn[nH]c4)cc3)nc(-c3cccc(OCC(=O)NC4CCC4)c3)nc21` [Example 54, 2-(3-(4-((4-(1H-pyrazol-4-yl)phenyl)amino)-1-methyl-1H-pyrazolo[3,4-d]pyrimidin-6-yl)phenoxy)-N-cyclobutylacetamide], the 50% inhibitory concentration (IC50) lay in the range of 251 to 500 nM.

For `CC(C)NC(=O)COc1cccc(-c2nc(Nc3ccc(-c4cn[nH]c4)cc3)c3cnn(C)c3n2)c1` [Example 55, 2-(3-(4-((4-(1H-pyrazol-4-yl)phenyl)amino)-1-methyl-1H-pyrazolo[3,4-d]pyrimidin-6-yl)phenoxy)-N-isopropylacetamide], the IC50 was 251 to 500 nM.

For the compound `Cn1ncc2c(Nc3ccc(-c4cn[nH]c4)cc3)nc(-c3cccc(OCC(=O)NC4CCCC4)c3)nc21` [Example 56, 2-(3-(4-((4-(1H-pyrazol-4-yl)phenyl)amino)-1-methyl-1H-pyrazolo[3,4-d]pyrimidin-6-yl)phenoxy)-N-cyclopentylacetamide], the concentration for half-maximal inhibition (IC50) lay in the range of 101 to 250 nM.

Turning to `CC(C)CNC(=O)COc1cccc(-c2nc(Nc3ccc(-c4cn[nH]c4)cc3)c3cnn(C)c3n2)c1` [Example 57, 2-(3-(4-((4-(1H-pyrazol-4-yl)phenyl)amino)-1-methyl-1H-pyrazolo[3,4-d]pyrimidin-6-yl)phenoxy)-N-isobutylacetamide], the 50% inhibitory concentration (IC50) fell in the range of 101 to 250 nM.
